Results reported in a melting point compilation (Tetko et al.; mined from patent text by program, amines drawn as free bases though some values may be those of a salt).

SMILES | melting point
O=C(NC(Cc1ccccc1)C1CC(Cc2ccccc2)=NO1)c1ccccc1 (stereo not drawn) | 141 to 142 °C
O=Cc1cc([N+](=O)[O-])ccc1Sc1ccccc1 | 96 to 100 °C
Cc1cc(S(N)(=O)=O)ccc1-n1nc(C(F)(F)F)cc1-c1ccc(-c2ccco2)cc1 | 87 to 89 °C
COC(=O)C(Oc1cc(OCc2ccccc2)ccc1C#N)c1ccccc1C (racemic) | 134 to 136 °C
O=C(O)c1ccc(S(=O)(=O)C(Br)(Br)Br)cc1 | > 305 °C
C#CCN1CC(=O)N(c2ccc(Cl)cc2C)C1=S | 99 to 102 °C
CC1(C)CC2(CC(C)(C)N1)OC1(CCCCCCCCCCC1)NC2=O | 97 °C
COC(=O)CCn1ccc2cc([N+](=O)[O-])ccc21 | 97 to 99 °C
O=C(N1CCCN(C(=O)C(F)(F)F)CCN(C(=O)C(F)(F)F)CCCN(C(=O)C(F)(F)F)CC1)C(F)(F)F | 217 to 218 °C
CCOC(=O)Nc1ccc(-c2cccs2)s1 | 76 °C
COc1ccc2c(-c3ccccc3)c([N+](=O)[O-])oc2c1 | 100 to 106 °C
Cc1c(-c2cccnc2)n(Cc2ccc(C#N)cc2)c2ccccc12 | 127 to 129 °C
CCOC(=O)c1[nH]c2ccc(Cl)cc2c1N | 126 to 127 °C
Oc1ccc(-c2n[nH]c3ncnc(Nc4cccc(Cl)c4)c23)cc1 | > 220 °C
O=[N+]([O-])c1cccc([N+](=O)[O-])c1F | 50 °C

Further lines, results first:

melting point | SMILES
160 to 163 °C | COc1c(N2CC(F)[C@](C)(N)C2)c(F)cc2c(=O)c(C(=O)O)cn([C@@H]3C[C@@H]3F)c12 (stereo partly drawn)
154 to 155 °C | O=C(O)CCC(=C1SCCCS1)c1ccc(Oc2ccccc2)cc1
254 to 255 °C | CC1(C)CC(=O)C2=C(C1)NC1=C(C(=O)CC(C)(C)C1)C2c1cccc(Oc2cc(Cl)cc(Cl)c2)c1
206 °C | NCC(=O)NCCCCNc1cccc2c1C(=O)c1ccccc1C2=O
99 to 101 °C | CSc1cccc(Oc2ncc(F)cc2C(=O)N[C@@H]2CCCC[C@@H]2O)c1 (relative stereo)
111 to 117 °C | CS(=O)(=O)c1ccc(-c2cnn(-c3ccc(F)cc3)c(=O)c2OCCC2CC2)cc1
188 to 189 °C | Nc1ccc2c(c1)OC1(CC1)C2=O
81.1 to 84.1 °C | CC(CNC(=O)N(CCC(F)(F)F)CCC12CC3CC(CC(C3)C1)C2)Cc1ccncc1 (stereo not drawn)
175 °C | CN(C)c1ccc(C2SCC(C(=O)O)N2C(=O)OC(C)(C)C)cc1 (mixture of isomers)
215 to 218 °C | CN1CCN(c2ccc(-c3nc4c(N[C@H]5[C@@H](C(N)=O)[C@@H]6C=C[C@H]5C6)c(Br)cnc4[nH]3)cc2)CC1
288 to 289 °C | c1cnc2[nH]c(-c3ccc(C4OCCCO4)cc3)cc2n1
107 to 110 °C | CC#CC(C)(C)NC(=O)C(COC)Oc1cc(Cl)cc(Cl)c1 (stereo not drawn)
86 to 90 °C | O=C1CCCC(CN2CCN(c3ccccn3)CC2)C1 (stereo not drawn)
48 to 49 °C | COC(=O)/C(=C\O)c1ccccc1C
171 to 172 °C | CC(=O)c1ccc(CC2SC(=O)NC2=O)cc1 (stereo not drawn)
115 to 116 °C | C=CCC(C)(CC=C)C(=O)O[C@H]1C[C@H](O)C=C2C=C[C@H](C)[C@H](CC[C@@H]3C[C@@H](O)CC(=O)O3)[C@H]21
209 to 210 °C | CCn1c(=O)c2c(nc(C=Cc3cc(OC)ccc3S(=O)(=O)O)n2C)n(CC)c1=O
55 °C | COc1cc(CO)c(-c2cccc(OCCC(C)CCCC(C)C)c2)cc1CO (stereo not drawn)
252 °C | C=CCn1c(=O)c2[nH]c(/C=C/c3ccc(OC)c(OC)c3)nc2n(CC=C)c1=O
93 to 93.5 °C | O=C(c1cc(Cl)ccc1NC(=O)C(Cl)(Cl)Cl)C1CCCCC1
186 °C | O=C(NCC#CCN1CCOCC1)N1c2ccccc2-c2noc3c2C1CCC3 (stereo not drawn)
250 °C | CCCC(=O)Nc1n[nH]c2cc(-c3ccc([N+](=O)[O-])cc3)ccc12
78 to 80 °C | COc1ccc(N2CCN(CCC(O)COc3ccc(F)cc3)CC2)cc1 (stereo not drawn)
